Test results taken from ChEMBL document CHEMBL1154967, “Bioactive bromophycolides R-U from the Fijian red alga Callophycus serratus” (J Nat Prod, 2010).
Values after ≈ are worked out from the molar mass of the structure shown.

Tests used:
Plasmodium falciparum = test: Antimalarial activity against Plasmodium falciparum assessed as SYBR Green uptake after 48 hrs; format: functional, organism-based
Staphylococcus aureus = test: Antibacterial activity against methicillin resistant Staphylococcus aureus ATCC 33591; format: functional, organism-based
Enterococcus faecium = test: Antibacterial activity against vancomycin resistant Enterococcus faecium ATCC 700221; format: functional, organism-based
[1] = test system: Mycobacterium tuberculosis; test: Antitubercular activity against Mycobacterium tuberculosis […] ATCC 27294 after 4 days by microplate alamar blue assay; format: functional; details: 96 h
Candida albicans = test: Antifungal activity against amphotericin resistant Candida albicans ATCC 90873 after 12 to 15 hrs by Alamar Blue assay; format: functional, organism-based

Structure (SMILES)	IC50 (Plasmodium falciparum) [nM]	IC50 (Staphylococcus aureus) [µM]	IC50 (Enterococcus faecium) [µM]	MIC [1] [µM]	IC50 (Candida albicans) [µM]
C=C(C)[C@@H]1CC[C@]2(C)O[C@H]2CC[C@@]2(C)[C@H](Cc3cc(ccc3O)C(=O)O1)C(=C)CC[C@@H]2Br [BROMOPHYCOLIDE R]	1700	> 15	> 15	> 50	> 15
C=C1CC[C@H](Br)[C@@]2(C)CC[C@@H]3O[C@@]3(C)CC[C@@H](C(C)(C)Br)OC(=O)c3ccc(O)c(c3)C[C@H]12 [BROMOPHYCOLIDE S]	900	> 15	3.8	23 (≈ 13.4 µg/mL)	> 15
CC1=CC[C@H](Br)[C@@]2(C)CC[C@@H](Br)[C@@]3(C)CC[C@H](OC(=O)c4ccc(O)c(c4)C[C@H]12)C(C)(C)O3 [BROMOPHYCOLIDE U]	2100	0.9	0.9	22 (≈ 12.9 µg/mL)	> 15
